Measured values reported in US20210403420A1, “BENZOATE COMPOUND” (SCOHIA PHARMA, INC., priority 2018, published 2021).
Where a name gives a salt, the structure may show the parent alone.

Key:
[1] = tested on: High fat diet-fed mice; assay: Fecal protein concentration-increasing test using high fat diet-fed mouse; type: in vivo; settings: Mus musculus, po, 24 h, feces of first day of administration, vehicle group = 100, read-out: Fecal protein concentration-increasing rate; for response vs control in vivo at 30 mg/kg: 30 mg/kg oral
Text: Test Example 2: Fecal Protein Concentration-Increasing Test Using High Fat Diet-Fed Mouse
High fat diet-fed mice (D12451 diet, male, 10- to 50-week old) were orally administered with a 0.5% methyl cellulose suspension containing a test compound (compound administration group, five mice per group) or a 0.5% methyl cellulose suspension (compound non-administration group (vehicle group), five mice per group), and whole feces were collected on the first day of administration. Dried feces were dissolved in 0.5 N NaOH, followed by centrifugation at 12,000 rpm. The protein concentration in the supernatant was then quantitatively measured (Lowry method), and the amount of protein contained in 1 g of feces was calculated as the fecal protein concentration (mg/g feces). The fecal protein concentration-increasing rate was calculated by the following expression.
Fecal protein concentration-increasing rate (%)=Fecal protein concentration of compound administration group/Fecal protein concentration of vehicle group×100

[2] = tested on: Diet-induced obesity (DIO) mice; assay: Anti-obesity effect test using DIO mouse; type: in vivo; settings: for Body weight (g) At start of administration: average at start of administration; for Body weight (g) After 7-day administration: average; for Fecal protein concentration-increasing rate (%): feces of eighth day, vehicle = 100
Procedure: Test Example 3: Anti-Obesity Effect Test Using DIO Mouse
Diet-induced obesity (DIO) mice (D12451 diet, male, 26-week old) were orally administered with a 0.5% methyl cellulose suspension containing a test compound (30 mg/kg) (compound administration group, five mice per group) or a 0.5% methyl cellulose suspension (compound non-administration group (vehicle), five mice per group) once a day for seven days, and whole feces were collected on the eighth day of administration. Dried feces were dissolved in 0.5 N NaOH, followed by centrifugation at 12,000 rpm. The protein concentration in the supernatant was then quantitatively measured (Lowry method), and the amount of protein contained in 1 g of feces was calculated as the fecal protein concentration (mg/g feces). The fecal protein concentration-increasing rate was calculated by the following expression.
Fecal protein concentration-increasing rate (%)=Fecal protein concentration of compound administration group/Fecal protein concentration of vehicle group X 100
The fecal protein concentration-increasing rate and the averages of the body weights at the start of administration and after administration for seven days are shown in Table 6.
Also, DIO mice (D12451 diet, male, 59-week old) were orally administered with a 0.5% methyl cellulose suspension containing a test compound (20 mg/kg) (compound administration group, five mice per group) or a 0.5% methyl cellulose suspension (compound non-administration group (vehicle), five mice per group) once a day for seven days, and whole feces were collected on the eighth day of administration. The fecal protein concentration (mg/g feces) was calculated by the method described above. The fecal protein concentration-increasing rate and the averages of the body weights at the start of administration and after administration for seven days are shown in Table 7.

[3] = target: T1, Human recombinant enteropeptidase (Homo sapiens, UniProt P98073); assay: Human enteropeptidase inhibitory activity; type: biochemical; settings: 1 μM test compound; fluorescence intensity at 2 hours after start of reaction; read-out: Inhibition rate at 1 μM
T1 construct: purchased ITSI-Biosciences LLC #REN-260
Procedure: Test Example 1: Human Enteropeptidase Inhibitory Activity
Human recombinant enteropeptidase (#REN-260, ITSI-Biosciences LLC) was diluted with an assay buffer (50 mM Tricine, pH 8.0, 0.01 (w/v) %, Tween 20, 10 mM CaCl2)) to prepare a 24 mU/mL enzyme solution. Subsequently, 5FAM-Abu-Gly-Asp-Asp-Asp-Lys-Ile-Val-Gly-Gly-Lys(CPQ2)-Lys-Lys-NH2 (CPC Scientific Inc.) was diluted with the assay buffer to prepare a 2.1 μM substrate solution. A test compound is dissolved in DMSO into a 10 mM solution, and the solution was diluted with the assay buffer to give a compound solution. To a 384-well black plate (#784076, Greiner Bio-One), 5 μL of the compound solution and 5 μL of the substrate solution were added and mixed, and 5 μL of the enzyme solution was then added to the mixture, followed by mixing to start the reaction. The fluorescence intensity was measured with a fluorescence plate reader EnVision (The Perkin-Elmer Corp.) at an excitation wavelength of 485 nm and a fluorescence wavelength of 535 nm. The same reaction as above was performed without the addition of the test compound (test compound non-addition group). Furthermore, the same reaction as above was performed without the addition of the test compound and the enzyme (control group). The inhibition rate was calculated using the fluorescence intensity at 2 hours after the start of the reaction by the following expression:
Inhibition rate (%)=(1−((fluorescence intensity of test compound addition group)−(fluorescence intensity of control group))/((fluorescence intensity of test compound non-addition group)−(fluorescence intensity of control group)))×100

[4] = DIO mice 26-week old, 30 mg/kg group
[5] = DIO mice 26-week old, 30 mg/kg oral once a day for seven days
[6] = DIO mice 59-week old, 20 mg/kg group
[7] = DIO mice 59-week old, 20 mg/kg oral once a day for seven days

T1 sequence (P98073 whole entry): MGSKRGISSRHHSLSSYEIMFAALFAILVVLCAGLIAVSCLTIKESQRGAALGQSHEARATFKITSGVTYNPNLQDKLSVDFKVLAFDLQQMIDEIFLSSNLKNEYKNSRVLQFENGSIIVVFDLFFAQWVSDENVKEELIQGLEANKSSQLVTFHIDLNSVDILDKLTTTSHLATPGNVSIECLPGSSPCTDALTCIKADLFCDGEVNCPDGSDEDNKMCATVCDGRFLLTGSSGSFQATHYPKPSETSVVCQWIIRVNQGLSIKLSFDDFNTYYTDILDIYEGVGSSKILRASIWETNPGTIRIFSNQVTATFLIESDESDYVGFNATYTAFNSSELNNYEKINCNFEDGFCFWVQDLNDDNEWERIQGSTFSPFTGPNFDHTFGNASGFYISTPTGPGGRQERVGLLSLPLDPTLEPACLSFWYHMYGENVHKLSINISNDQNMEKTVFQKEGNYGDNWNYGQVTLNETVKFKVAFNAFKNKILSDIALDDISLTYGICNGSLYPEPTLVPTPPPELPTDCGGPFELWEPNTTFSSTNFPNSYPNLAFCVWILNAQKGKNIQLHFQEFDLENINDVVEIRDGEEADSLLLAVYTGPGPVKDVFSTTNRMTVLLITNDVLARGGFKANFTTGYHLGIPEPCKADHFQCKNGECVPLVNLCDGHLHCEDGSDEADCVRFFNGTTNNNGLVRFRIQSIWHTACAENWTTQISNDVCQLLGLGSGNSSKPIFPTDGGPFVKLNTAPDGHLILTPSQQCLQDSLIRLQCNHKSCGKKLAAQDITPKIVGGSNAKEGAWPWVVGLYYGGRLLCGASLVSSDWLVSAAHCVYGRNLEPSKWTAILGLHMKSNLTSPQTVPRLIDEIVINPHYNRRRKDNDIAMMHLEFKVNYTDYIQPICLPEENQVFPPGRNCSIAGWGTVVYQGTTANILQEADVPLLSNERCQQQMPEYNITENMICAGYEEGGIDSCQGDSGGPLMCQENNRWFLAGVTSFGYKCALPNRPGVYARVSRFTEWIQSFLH

| SMILES | response vs control in vivo at 30 mg/kg [1] [%] | Body weight (g) At start of administration [2, 4] [g] | Body weight (g) After 7-day administration [2, 5] [g] | Fecal protein concentration-increasing rate (%) [2, 5] [%] | inhibition at 1 µM [3] [%] | Body weight (g) At start of administration [2, 6] [g] | Body weight (g) After 7-day administration [2, 7] [g] | Fecal protein concentration-increasing rate (%) [2, 7] [%] | response vs control in vivo at 10 mg/kg ([1]; 10 mg/kg oral) [%] |
| --- | --- | --- | --- | --- | --- | --- | --- | --- | --- |
| N=C(N)Nc1ccc(C(=O)Oc2cc(OCCOc3cc(OC(=O)c4ccc(NC(=N)N)cc4)cc(C(=O)N[C@H](CC(=O)O)C(=O)O)c3)cc(C(=O)N[C@H](CC(=O)O)C(=O)O)c2)cc1 [Example 16, (2R)-2-[[3-[2-[3-[[(1R)-1,2-Dicarboxyethyl]carbamoyl]-5-(4-Guanidinobenzoyl)oxyphenoxy]ethoxy]-5-(4-guanidinobenzoyl)oxybenzoyl]amino]butanedioic acid dihydrochloride] | 245 | 45.7 | 44.7 | 271 | 100 |  |  |  |  |
| Cl.Cl.N=C(N)Nc1ccc(C(=O)Oc2cc(OCCOCCOc3cc(OC(=O)c4ccc(NC(=N)N)cc4)cc(C(=O)N[C@H](CC(=O)O)C(=O)O)c3)cc(C(=O)N[C@H](CC(=O)O)C(=O)O)c2)cc1 [Example 15, (2R)-2-[[3-[2-[2-[3-[[(1R)-1,2-Dicarboxyethyl]carbamoyl]-5-(4-guanidinobenzoyl)oxyphenoxy]ethoxy]ethoxy]-5-(4-guanidinobenzoyl)oxybenzoyl]amino]butanedioic acid dihydrochloride] | 212 | 46.0 | 43.4 | 250 | 100 | 56.6 | 54.0 | 227 |  |
| N=C(N)Nc1ccc(C(=O)Oc2ccc(C(=O)N[C@H](CC(=O)O)C(=O)O)c(OCCOCCOc3cc(OC(=O)c4ccc(NC(=N)N)cc4)ccc3C(=O)N[C@H](CC(=O)O)C(=O)O)c2)cc1 [Example 21, (2R)-2-[[2-[2-[2-[2-[[(1R)-1,2-Dicarboxyethyl]carbamoyl]-5-(4-guanidinobenzoyl)oxyphenoxy]ethoxy]ethoxy]-4-(4-guanidinobenzoyl)oxybenzoyl]amino]butanedioic acid dihydrochloride] | 203 |  |  |  | 100 | 56.7 | 53.6 | 248 |  |
| N=C(N)c1ccc(OC(=O)c2cc(OCCOCCOCCOc3cc(C(=O)N[C@@H](CC(=O)O)C(=O)O)cc(C(=O)Oc4ccc(C(=N)N)cc4)c3)cc(C(=O)N[C@@H](CC(=O)O)C(=O)O)c2)cc1 [Example 7, (2S)-2-[[3-(4-Carbamimidoylphenoxy)carbonyl-5-[2-[2-[2-[3-(4-carbamimidoylphenoxy)carbonyl-5-[[(1S)-1,2-dicarboxyethyl]carbamoyl]phenoxy]ethoxy]ethoxy]ethoxy]benzoyl]amino]butanedioic acid ditrifluoroacetate] | 115 |  |  |  | 100 |  |  |  |  |
| N=C(N)Nc1ccc(C(=O)Oc2ccc(CCC(=O)N[C@H](CC(=O)O)C(=O)O)c(OCCOCCOc3cc(OC(=O)c4ccc(NC(=N)N)cc4)ccc3CCC(=O)N[C@H](CC(=O)O)C(=O)O)c2)cc1 [Example 13, (2R)-2-[3-[2-[2-[2-[2-[3-[[(1R)-1,2-Dicarboxyethyl]amino]-3-oxopropyl]-5-(4-guanidinobenzoyl)oxyphenoxy]ethoxy]ethoxy]-4-(4-guanidinobenzoyl)oxyphenyl]propanoylamino]butanedioic acid] | 150 |  |  |  | 100 |  |  |  |  |
| N=C(N)Nc1ccc(C(=O)Oc2cc(OCCOCCOCCOc3cc(OC(=O)c4ccc(NC(=N)N)cc4)cc(C(=O)N[C@H](CC(=O)O)C(=O)O)c3)cc(C(=O)N[C@H](CC(=O)O)C(=O)O)c2)cc1 [Example 6, (2R)-2-[[3-[2-[2-[2-[3-[[(1R)-1,2-Dicarboxyethyl]carbamoyl]-5-(4-guanidinobenzoyl)oxyphenoxy]ethoxy]ethoxy]ethoxy]-5-(4-guanidinobenzoyl)oxybenzoyl]amino]butanedioic acid ditrifluoroacetate] | 203 |  |  |  | 100 |  |  |  |  |
| N=C(N)Nc1ccc(C(=O)Oc2cc(OCCOCCOCCOc3cc(OC(=O)c4ccc(NC(=N)N)cc4)cc(C(=O)N[C@H](CCCCN)C(=O)O)c3)cc(C(=O)N[C@H](CCCCN)C(=O)O)c2)cc1 [Example 11, (2R)-6-Amino-2-[[3-[2-[2-[2-[3-[[(1R)-5-amino-1-carboxypentyl]carbamoyl]-5-(4-guanidinobenzoyl)oxyphenoxy]ethoxy]ethoxy]ethoxy]-5-(4-guanidinobenzoyl)oxybenzoyl]amino]hexanoic acid] | 171 |  |  |  | 60 |  |  |  |  |
| N=C(N)Nc1ccc(C(=O)Oc2cc(OCCOCCOc3cc(OC(=O)c4ccc(NC(=N)N)cc4F)cc(C(=O)N[C@H](CC(=O)O)C(=O)O)c3)cc(C(=O)N[C@H](CC(=O)O)C(=O)O)c2)c(F)c1 [Example 18, (2R)-2-[[3-[2-[2-[3-[[(1R)-1,2-Dicarboxyethyl]carbamoyl]-5-(2-fluoro-4-guanidinobenzoyl)oxyphenoxy]ethoxy]ethoxy]-5-(2-fluoro-4-guanidinobenzoyl)oxybenzoyl]amino]butanedioic acid] | 142 |  |  |  | 100 |  |  |  |  |
| N=C(N)Nc1ccc(C(=O)Oc2cc(OCCOCCOCCOCCOCCOCCOCCOc3cc(OC(=O)c4ccc(NC(=N)N)cc4)cc(C(=O)N[C@@H](CC(=O)O)C(=O)O)c3)cc(C(=O)N[C@@H](CC(=O)O)C(=O)O)c2)cc1 [Example 3, (2S)-2-[[3-[2-[2-[2-[2-[2-[2-[2-[3-[[(1S)-1,2-Dicarboxyethyl]carbamoyl]-5-(4-guanidinobenzoyl)oxyphenoxy]ethoxy]ethoxy]ethoxy]ethoxy]ethoxy]ethoxy]ethoxy]-5-(4-guanidinobenzoyl)oxybenzoyl]amino]butanedioic acid] | 152 |  |  |  | 98 |  |  |  |  |
| N=C(N)Nc1ccc(C(=O)Oc2cc(OCCOCCOc3cc(OC(=O)c4ccc(NC(=N)N)cc4)cc(C(=O)NCCS(=O)(=O)O)c3)cc(C(=O)NCCS(=O)(=O)O)c2)cc1 [Example 20, 2-[[3-(4-Guanidinobenzoyl)oxy-5-[2-[2-[3-(4-guanidinobenzoyl)oxy-5-(2-sulfoethylcarbamoyl)phenoxy]ethoxy]ethoxy]benzoyl]amino]ethanesulfonic acid ditrifluoroacetate] |  |  |  |  | 99 |  |  |  | 143 |
